Measurements taken from patent US9018209B2, “Compounds and methods for the treatment of viruses and cancer” (Yale University, priority 2005, dated 2015).
Like-named read-outs stand apart in the source and are kept apart here.

What was measured:
IIIB strain of HIV-1 = assay: Anti-HIV-1 activity: protection of infected MT-2 cells, MTT colorimetric method; type: cell-based
MT-2 human T-cells = assay: Cytotoxicity: inhibition of MT-2 cell growth; type: cell-based
Text: The preparation of the analogues 4a-h involved the reaction between 2-bromothiazole 1 with the corresponding 5-amino-2-R-phenol 2, followed by reaction with 4-bromo-2-methyl-2-butene in presence of Cs2CO3 as a base (Scheme 1; see Table 1 for antiviral activities (EC50) and cytotoxicities (IC50) of these compounds, as determined using human MT-2 cells infected with IIIB strain of HIV-1).
See, Ruiz-Caro, supra. and Lin, et al., Biochem. Pharmacol. 1994, 47, 171-174.

[1] = Table 3, thiazoles 18-23, N/A read as no activity, read-out: EC50
[2] = Table 3, cytotoxicity, MT-2 cells, read-out: IC50
[3] = Table 1, compounds 4a-h, human MT-2 cells infected with IIIB strain of HIV-1, N/A read as no activity, read-out: EC50
[4] = Table 1, cytotoxicity, MT-2 cells, read-out: IC50
[5] = Table 1a, heteroaryl derivatives, N/A read as no activity, read-out: EC50
[6] = Table 1a, cytotoxicity, MT-2 cells, read-out: IC50
[7] = Table 1B, for 50% inhibition of MT-2 cell growth, triplicate samples
[8] = Table 1B, for 50% protection in MT-2 cells, triplicate samples, NA for EC50 > CC50, read-out: EC50
[9] = Homo sapiens, MT2, Table 3, cytotoxicity, MT-2 cells, read-out: IC50
[10] = Homo sapiens, MT2, Table 1a, cytotoxicity, MT-2 cells, read-out: IC50
[11] = Homo sapiens, MT2, Table of bicyclic-heteroaryl phenyl amines, cytotoxicity, MT-2 cell assays, read-out: IC50

CCC(C)=CCOc1cc(Nc2nccs2)ccc1C (mixture of isomers) [Compound 18b, (E/Z)-N-(4-methyl-3-(3-methylpent-2-enyloxy)phenyl)thiazol-2-amine]
EC50 (IIIB strain of HIV-1; [1]): 8 µM | IC50 (MT-2 human T-cells; [2]): 32 µM

CCC(C)=CCOc1cc(Nc2nccs2)ccc1CC (mixture of isomers) [Compound 18e, (E/Z)-N-(4-ethyl-3-(3-methylpent-2-enyloxy)phenyl)thiazol-2-amine]
EC50 (IIIB strain of HIV-1; [1]): 10 µM | IC50 (MT-2 human T-cells; [2]): 29 µM

CC(C)=CCOc1cccc(Nc2nccs2)c1 [Compound 4a, N-(3-(3-methylbut-2-enyloxy)phenylthiazol)-2-amine]
EC50 (IIIB strain of HIV-1; [3]): 10 µM | IC50 (MT-2 human T-cells; [4]): 23 µM

CC(C)=CCOc1cc(Nc2nccs2)ccc1C [Compound 4b, N-(4-methyl-3-(3-methylbut-2-enyloxy)phenylthiazol)-2-amine]
EC50 (IIIB strain of HIV-1; [3]): 3 µM | EC50 (IIIB strain of HIV-1; [5]): 3 µM | IC50 (MT-2 human T-cells; [4]): 17 µM | IC50 (MT-2 human T-cells; [6]): 17 µM

COc1ccc(Nc2nccs2)cc1OCC=C(C)C [Compound 4c, N-(4-methoxy-3-(3-methylbut-2-enyloxy)phenylthiazol)-2-amine]
EC50 (IIIB strain of HIV-1; [3]): 3.8 µM | IC50 (MT-2 human T-cells; [4]): 42 µM

CC(C)=CCOc1cc(Nc2nccs2)ccc1Cl [Compound 4d, N-(4-chloro-3-(3-methylbut-2-enyloxy)phenylthiazol)-2-amine]
EC50 (IIIB strain of HIV-1; [3]): 0.3 µM | EC50 (IIIB strain of HIV-1; [5]): 0.3 µM | IC50 (MT-2 human T-cells; [4]): 26 µM | IC50 (MT-2 human T-cells; [6]): 26 µM

CCc1ccc(Nc2nccs2)cc1OCC=C(C)C [Compound 4e, N-(4-ethyl-3-(3-methylbut-2-enyloxy)phenylthiazol)-2-amine]
EC50 (IIIB strain of HIV-1; [3]): 5 µM | IC50 (MT-2 human T-cells; [4]): 31 µM

CCCc1ccc(Nc2nccs2)cc1OCC=C(C)C [Compound 4f, N-(4-propyl-3-(3-methylbut-2-enyloxy)phenylthiazol)-2-amine]
IC50 (MT-2 human T-cells; [4]): 31 µM

CC(C)=CCOc1cc(Nc2nccs2)ccc1C(C)C [Compound 4g, N-(4-isopropyl-3-(3-methylbut-2-enyloxy)phenylthiazol)-2-amine]
EC50 (IIIB strain of HIV-1; [3]): 23 µM | IC50 (MT-2 human T-cells; [4]): 23 µM

CC(C)=CCOc1cc(Nc2nccs2)ccc1C#N [Compound 4h, N-(4-cyano-3-(3-methylbut-2-enyloxy)phenylthiazol)-2-amine]
EC50 (IIIB strain of HIV-1; [3]): 0.21 µM | EC50 (IIIB strain of HIV-1; [5]): 0.21 µM | IC50 (MT-2 human T-cells; [4]): 0.75 µM | IC50 (MT-2 human T-cells; [6]): 0.75 µM

CC(C)=CCOc1cc(Nc2ncnc(Cl)n2)ccc1Cl [Compound 7a]
CC50 (MT-2 human T-cells; [7]): 45 µM

COc1ncnc(Nc2ccc(Cl)c(OCC=C(C)C)c2)n1 [Compound 7b]
EC50 (IIIB strain of HIV-1; [8]): 0.031 µM | CC50 (MT-2 human T-cells; [7]): 18 µM

CC(C)=CCOc1cc(Nc2ncnc(N)n2)ccc1Cl [Compound 7c]
EC50 (IIIB strain of HIV-1; [8]): 0.39 µM | CC50 (MT-2 human T-cells; [7]): 48 µM

CNc1ncnc(Nc2ccc(Cl)c(OCC=C(C)C)c2)n1 [Compound 7d]
EC50 (IIIB strain of HIV-1; [8]): 0.031 µM | CC50 (MT-2 human T-cells; [7]): 3.1 µM

CC(C)=CCOc1cc(Nc2nc(C)nc(Cl)n2)ccc1Cl [Compound 7e]
EC50 (IIIB strain of HIV-1; [8]): 12 µM | CC50 (MT-2 human T-cells; [7]): 40 µM

COc1nc(Cl)nc(Nc2ccc(Cl)c(OCC=C(C)C)c2)n1 [Compound 7f]
CC50 (MT-2 human T-cells; [7]): 26 µM

COc1nc(C)nc(Nc2ccc(Cl)c(OCC=C(C)C)c2)n1 [Compound 7g]
EC50 (IIIB strain of HIV-1; [8]): 0.1 µM | CC50 (MT-2 human T-cells; [7]): 12 µM

COc1nc(Nc2ccc(Cl)c(OCC=C(C)C)c2)nc(OC)n1 [Compound 7h]
EC50 (IIIB strain of HIV-1; [8]): 0.29 µM | CC50 (MT-2 human T-cells; [7]): 20 µM

CC(C)=CCOc1cccc(Nc2nc(C)cs2)c1 [Compound 8a, 4-Methyl-N-(3-(3-methylbut-2-enyloxy)phenyl)thiazol-2-amine]
IC50 (MT-2 human T-cells; Homo sapiens, MT2): 26 µM

CC(C)=CCOc1cc(Nc2nc(C)cs2)ccc1C [Compound 8b, 4-Methyl-N-(4-methyl-3-(3-methylbut-2-enyloxy)phenyl)thiazol-2-amine]
IC50 (MT-2 human T-cells; Homo sapiens, MT2): 15 µM

COc1ccc(Nc2nc(C)cs2)cc1OCC=C(C)C [Compound 8c, 4-Methyl-N-(4-methoxy-3-(3-methylbut-2-enyloxy)phenyl)thiazol-2-amine]
IC50 (MT-2 human T-cells; Homo sapiens, MT2): 18 µM

COc1nc(Nc2ccc(C#N)c(OCC=C(C)C)c2)nc(OC)n1 [Compound 8h]
EC50 (IIIB strain of HIV-1; [8]): 0.022 µM | CC50 (MT-2 human T-cells; [7]): > 100 µM

CSc1ncnc(Nc2ccc(C#N)c(OCC=C(C)C)c2)n1 [Compound 8i]
EC50 (IIIB strain of HIV-1; [8]): 0.005 µM | CC50 (MT-2 human T-cells; [7]): 8.4 µM

COc1nc(N)nc(Nc2ccc(C#N)c(OCC=C(C)C)c2)n1 [Compound 8j]
EC50 (IIIB strain of HIV-1; [8]): 0.009 µM | CC50 (MT-2 human T-cells; [7]): 0.11 µM

CCOC(=O)c1csc(Nc2cccc(OCC=C(C)C)c2)n1 [Compound 9a, Ethyl 2-(3-(3-methylbut-2-enyloxy)phenylamino)thiazole-4-carboxylate]
IC50 (MT-2 human T-cells; Homo sapiens, MT2): 21 µM

CCOC(=O)c1csc(Nc2ccc(C)c(OCC=C(C)C)c2)n1 [Compound 9b, Ethyl 2-(4-methyl-3-(3-methylbut-2-enyloxy)phenylamino)thiazole-4-carboxylate]
IC50 (MT-2 human T-cells; Homo sapiens, MT2): 11 µM

CCOC(=O)c1csc(Nc2ccc(OC)c(OCC=C(C)C)c2)n1 [Compound 9c, Ethyl 2-(4-methoxy-3-(3-methylbut-2-enyloxy)phenylamino)thiazole-4-carboxylate]
IC50 (MT-2 human T-cells; Homo sapiens, MT2): 15 µM

CNc1ccnc(Nc2ccc(Cl)c(OCC=C(C)C)c2)n1 [Compound 9d]
EC50 (IIIB strain of HIV-1; [8]): 0.006 µM | CC50 (MT-2 human T-cells; [7]): 0.69 µM

COc1cc(OC)nc(Nc2ccc(Cl)c(OCC=C(C)C)c2)n1 [Compound 9h]
EC50 (IIIB strain of HIV-1; [8]): 0.25 µM | CC50 (MT-2 human T-cells; [7]): 28 µM

CSc1ccnc(Nc2ccc(Cl)c(OCC=C(C)C)c2)n1 [Compound 9i]
EC50 (IIIB strain of HIV-1; [8]): 0.018 µM | CC50 (MT-2 human T-cells; [7]): 2.8 µM

COc1cc(N)nc(Nc2ccc(Cl)c(OCC=C(C)C)c2)n1 [Compound 9j]
EC50 (IIIB strain of HIV-1; [8]): 3 µM | CC50 (MT-2 human T-cells; [7]): 19 µM

CCOc1ccnc(Nc2ccc(Cl)c(OCC=C(C)C)c2)n1 [Compound 9k]
EC50 (IIIB strain of HIV-1; [8]): 0.041 µM | CC50 (MT-2 human T-cells; [7]): 19 µM

COCc1ccnc(Nc2ccc(Cl)c(OCC=C(C)C)c2)n1 [Compound 9l]
CC50 (MT-2 human T-cells; [7]): > 25 µM

CC(C)=CCOc1cc(Nc2nccc(CO)n2)ccc1Cl [Compound 9m]
CC50 (MT-2 human T-cells; [7]): 0.22 µM

COc1ccnc(Nc2ccc(Cl)c(Oc3ccccc3C)c2)n1 [Compound 11e]
CC50 (MT-2 human T-cells; Table 2b, MT-2 cells): 13 µM

CC(C)=CC(C)Oc1cc(Nc2nccs2)ccc1Cl (centres unmarked) [Compound 19d, N-(4-Chloro-3-(4-methylpent-3-en-2-yloxy)phenyl)thiazol-2-amine]
IC50 (MT-2 human T-cells; [9]): 22 µM

N#Cc1ccc(Nc2nccs2)cc1OC1=CCCC1 [Compound 20h, N-(4-Cyano-3-(cyclopentenyloxy)phenyl)thiazol-2-amine]
IC50 (MT-2 human T-cells; [9]): 1.7 µM

CC1=C(COc2cc(Nc3nccs3)ccc2Cl)CCC1 [Compound 21d, N-(4-Chloro-3-((2-methylcyclopent-1-enyl)methoxy)phenyl)thiazol-2-amine]
IC50 (MT-2 human T-cells; [9]): 2.5 µM

Clc1ccc(Nc2nccs2)cc1OCC1CCCCC1 [Compound 22d, N-(4-Chloro-3-(cyclohexylmethoxy)phenyl)thiazol-2-amine]
IC50 (MT-2 human T-cells; [9]): 12 µM

CCCCCCCOc1cc(Nc2nccs2)ccc1Cl [Compound 23d, N-(4-Chloro-3-(hexylmethoxy)phenyl)thiazol-2-amine]
IC50 (MT-2 human T-cells; [9]): 15 µM

CC(C)=CCOc1cc(Nc2ccccn2)ccc1C [Compound 30b, N-(4-Methyl-3-(3-methylbut-2-enyloxy)phenyl)pyridin-2-amine]
IC50 (MT-2 human T-cells; [10]): 35 µM

CC(C)=CCOc1cc(Nc2ccccn2)ccc1Cl [Compound 30d, N-(4-Chloro-3-(3-methylbut-2-enyloxy)phenyl)pyridin-2-amine]
IC50 (MT-2 human T-cells; [10]): 15 µM

CC(C)=CCOc1cc(Nc2ccccn2)ccc1C#N [Compound 30h, N-(4-Cyano-3-(3-methylbut-2-enyloxy)phenyl)pyridin-2-amine]
IC50 (MT-2 human T-cells; [10]): 0.29 µM

CC(C)=CCOc1cc(Nc2ccnc(N)n2)ccc1C [Compound 45b, N^4-(4-Methyl-3-(3-methylbut-2-enyloxy)phenyl)pyrimidin-2,4-diamine]
IC50 (MT-2 human T-cells; [10]): 0.6 µM

CC(C)=CCOc1cc(Nc2ccnc(N)n2)ccc1Cl [Compound 45d, N^4-(4-Chloro-3-(3-methylbut-2-enyloxy)phenyl)pyrimidin-2,4-diamine]
IC50 (MT-2 human T-cells; [10]): 2 µM

CC(C)=CC(C)Oc1cc(Nc2ncccn2)ccc1Cl (centres unmarked) [Compound 46, N-(4-chloro-3-(4-methylpent-3-en-2-yloxy)phenyl)pyrimidin-2-amine]
IC50 (MT-2 human T-cells; Homo sapiens, MT2, Table 2a, cytotoxicity, MT-2 cells, read-out: IC50): 22 µM

CC1=C(COc2cc(Nc3ncccn3)ccc2Cl)CCC1 [Compound 47]
IC50 (MT-2 human T-cells; Table 2a, cytotoxicity, MT-2 cells, read-out: IC50): 2.5 µM

Cc1ccnc2c1NC(=O)c1cccnc1N2C1CC1 [Nevirapine, nevirapine, reference compound]
IC50 (MT-2 human T-cells; [10]): > 10 µM | IC50 (MT-2 human T-cells; [11]): > 10 µM | CC50 (MT-2 human T-cells; [7]): > 10 µM

Cc1cc(C#N)cc(C)c1Oc1nc(Nc2ccc(C#N)cc2)nc(N)c1Br [TMC125, etravirine, reference compound]
IC50 (MT-2 human T-cells; [11]): > 1 µM | CC50 (MT-2 human T-cells; [7]): > 1 µM

Cc1cn([C@H]2C=C[C@@H](CO)O2)c(=O)[nH]c1=O [d4T, Stavudine, reference compound]
EC50 (IIIB strain of HIV-1; Human immunodeficiency virus 1, IIIB, text b104, read-out: anti-HIV activities in our assay): 3 µM

(2-3-(3-Methylbut-2-enyloxy)phenylamino)thiazol-4-yl)methanol [Compound 10a]
IC50 (MT-2 human T-cells; Table 2, cytotoxicity, MT-2 cells, read-out: IC50): 38 µM

Ethyl 2-(4-methoxy-3-(3-methylbut-2-enyloxy)phenylamino)thiazole-4-carboxylate [Compound 9c]
EC50 (IIIB strain of HIV-1; [8]): 0.075 µM

Ethyl 2-(4-methyl-3-(3-methylbut-2-enyloxy)phenylamino)thiazole-4-carboxylate [Compound 9b]
EC50 (IIIB strain of HIV-1; [8]): 0.01 µM | EC50 (IIIB strain of HIV-1; Table 2b, derivatives of pyrimidine 11, NA for EC50 > CC50, read-out: EC50): 0.01 µM
